Assay results as given in patent US8765941B2 (Kino Pharma, Inc., priority 2008, dated 2014).
Read-outs that look alike come from different tables or passages of the source.

Tests used:
[1] = system: intracellular HCV protein (NS3-NS4-NS5A-NS5B); assay: HCV viral protein expression assay using LuHCV cells (luciferase activity); conditions: for activity at 10 µM / activity at 20 µM: Hepatitis C virus, 48 h, read-out: luc activity (% control); for luciferase activity (result in words): 0, 10 and 20 μM
Experimental: As an HCV viral protein expression assay, screening was performed for compounds having anti-HCV activity using human hepatocytes with which the replication and expression of the intracellular HCV protein (NS3-NS4-NS5A-NS5B) can be evaluated through determination of luciferase activity (hereinafter, referred to as LuHCV).
LuHCV cells were plated onto 96-well plates at 5×10^3 cells/50 μL/well and then incubated overnight. Test compounds were each dissolved in dimethyl sulfoxide (DMSO) and dilution series were prepared using DMSO, if necessary. On the next day of plating of LuHCV cells, a medium containing a test compound with a concentration twice the final test concentration was added at 50 μL/well. Cells were gently cultured under culture conditions of 48 hours, 37° C., and 5% CO2 (the final concentrations of the test compounds: 0, 10, and 20 μM). At this time, analysis was made using 3 test wells for each test compound and for each concentration.
Culture medium was removed after 48 hours. Glo lysis buffer (100 μL) (Promega) was added to each well and then cells were disrupted, so that a cell extract was obtained. With the use of 50 μL of the thus obtained cell extract, 50 μL of a Bright-Glo™ Luciferase Assay System (Promega) reagent was added. Luciferase activity in the extract was determined by measuring luminescence intensity for one second using a measuring device ARVO (PerkinElmer Co., Ltd.).
Based on the thus obtained numerical values of luminescence intensity, an average value for each test compound at each concentration was calculated. The luminescence intensity percentage for each test compound was calculated based on a luminescence intensity for DMSO (used as a control for test substances) as 100%.
Culture medium was removed after 48 hours. Glo Lysis buffer (100 μL) (Promega) was added to each well and then cells were disrupted, so that a cell extract was obtained. With the use of 50 μL of the thus obtained cell extract, 50 μL of a Bright-Glo™ Luciferase Assay System (Promega) reagent was added. Luciferase activity in the extract was determined by measuring luminescence intensity for one second using a measuring device ARVO (PerkinElmer Co., Ltd.).
Based on the thus obtained numerical values of luminescence intensity, an average value for each test compound at each concentration was calculated. The luminescence intensity percentage for each test compound was calculated based on a luminescence intensity of DMSO (used as a control for test substances) as 100%.

LuHCV cells = assay: Evaluation of cell growth suppression using LuHCV cells (percentage of viable cells, reagent SF); type: cell-based, human; conditions: 48 hours, DMSO = 100%
Experimental: At this time, as a background absorbance, measurement was also performed for wells containing test compounds (or DMSO used as a control), but containing no cells. Each of the thus obtained background numerical values was deducted from the absorbance of a cell-containing well (measured for the same compound at the same concentration). The resulting value was designated as actual measurement of number of viable cells containing no background. […] With an average value measured for DMSO used as a control test substance designated as 100%, the percentage of the number of viable cells for each test compound was calculated.
At this time, as a background absorbance, measurement was also performed for wells containing test compounds (or containing DMSO used as a control), but containing no cells. Each of the thus obtained background numerical values was deducted from the absorbance of a cell-containing well (measured for the same compound at the same concentration). The resulting value was designated as actual measurement of number of viable cells containing no background. […] By using a value measured upon addition of DMSO used as a control test substance designated as 100%, the percentage of the number of viable cells for each test compound was calculated. Table 1-2 and FIG. 2B show the percentage of the number of viable cells (cell viability (% control)) for each test compound at each concentration.

| Compound | activity at 10 µM [1] | activity at 20 µM [1] | viability (% control) (LuHCV cells; 10 μM) | viability (% control) (LuHCV cells; 20 μM) | viability (% control) (influenza virus; 5 µM) | viability (% control) (influenza virus; 10 µM) | cell death due to influenza virus infection (result in words) (influenza virus; 5 and 10 μM, 48 hours, MDCK cells) | luciferase activity (result in words) ([1]; 48 hours, LuHCV cells) | decrease in luminescence intensity compared with the control ([1]; 10 μM, 48 hours, LuHCV cells) |
| --- | --- | --- | --- | --- | --- | --- | --- | --- | --- |
| O=C(NC(=O)c1cccnc1)Nc1cc(C(F)(F)F)ccc1N1CCCCCCC1 [Compound 8, N-nicotinoyl-N′-[2-(azacyclooctan-1-yl)-5-(trifluoro-methyl)phenyl]urea] | 55.7% | 58% | 77.35 % control | 77.81 % control |  |  |  |  |  |
| O=C(NC(=S)Nc1cc(C(F)(F)F)ccc1N1CCCCCC1)c1cccnc1 [Compound 4, N-nicotinoyl-N′[2-(azacycloheptan-1-yl)-5-(trifluoromethyl)phenyl]thiourea] | 65.8% | 44.5% | 93.86 % control | 89.76 % control |  |  |  |  |  |
| O=C(NC(=S)Nc1cc(C(F)(F)F)ccc1N1CCCCCCC1)c1ccoc1 [Compound 17] | 26.1% | 17.6% | 112.89 % control | 108.81 % control |  |  |  |  |  |
| O=C(NC(=S)Nc1cc(C(F)(F)F)ccc1N1CCCCCCCC1)c1ccccc1 [Compound 24, 1-benzoyl-3-[2-(azacyclononan-1-yl)-5-(trifluoro-methyl)phenyl]thiourea] | 56.4% | 39.4% | 108.20 % control | 110.15 % control |  |  |  |  |  |
| O=C(NC(=S)Nc1cc(C(F)(F)F)ccc1F)c1cccnc1 [Compound 16, N-nicotinoyl-N′-[2-fluoro-5-(trifluoro-methyl)phenyl]thiourea] | 58.1% | 48.9% | 85.21 % control | 79.86 % control |  |  |  |  |  |
| O=C(Nc1cc(C(F)(F)F)ccc1N1CCCCCCCC1)c1ccncc1 [Compound 20, W[2-(azacyclononan-1-yl)-5-(trifluoromethyl)-phenyl]isonicotinamide] | 48.3% | 22.7% | 111.50 % control | 105.35 % control |  |  |  |  |  |
| O=C(NC(=S)Nc1cc(C(F)(F)F)ccc1N1CC[C@H]2CCCC[C@@H]2C1)c1ccccc1 (relative stereo) [Compound 23, 1-benzoyl-3-[2-(trans-3-azabicyclo[4.4.0]decan-3-yl)-5-(trifluoromethyl)phenyl]thiourea] | 64% | 49.4% | 106.72 % control | 104.93 % control |  |  |  |  |  |
| O=C(NC(=S)Nc1cc(C(F)(F)F)ccc1N1CCCCCCCC1)c1cccnc1 [Compound 6, N-nicotinoyl-N′-[2-(azacyclononan-1-yl)-5-(trifluoromethyl)phenyl]thiourea] |  |  |  |  | 42.1 ± 1.5 % control | 80.9 ± 3.2 % control | cell death was decreased | Decreases in luciferase activity | about 50% |
| O=C(NC(=S)Nc1cc(C(F)(F)F)ccc1N1CCCCC1)c1cccnc1 [Compound 3, 1-nicotinoyl-3-[2-(1-piperidinyl)-5-(trifluoromethyl)phenyl]thiourea] | 69.3% | 43.2% | 103.79 % control | 93.82 % control |  |  |  |  |  |
| FC(F)(F)c1ccc(N2CCC[C@H]3CCCC[C@@H]32)c(NC(=S)c2ccncc2)c1 (relative stereo) [Compound 21, N-[2-(trans-2-azabicyclo[4.4.0]-decan-2-yl)-5-(trifluoromethyl)phenyl]isonicotinthioamide] | 56.8% | 34% | 94.44 % control | 93.56 % control |  |  |  |  |  |
| Cc1ccc(C(=O)NC(=S)Nc2cc(C(F)(F)F)ccc2N2CCCCCCC2)cc1 [Compound 11] | 35.8% | 29.8% | 89.95 % control | 89.20 % control |  |  |  |  |  |
| O=C(NC(=S)Nc1cc(C(F)(F)F)ccc1N1CCCCCCC1)c1ccc(F)cc1 [Compound 13, N-(4-fluorobenzoyl)-N′-[2-(azacyclooctan-1-yl)-5-(trifluoromethyl)phenyl]thiourea] | 34.1% | 28.5% | 101.56 % control | 104.05 % control |  |  |  |  |  |
| O=C(Nc1cc(C(F)(F)F)ccc1N1CCC[C@H]2CCCC[C@@H]21)c1ccncc1 (relative stereo) [Compound 19, N-[2-(trans-2-azabicyclo[4.4.0]decan-2-yl)-5-(trifluoromethyl)phenyl]isonicotinamide] | 51% | 33.5% | 99.02 % control | 91.02 % control |  |  |  |  |  |
| FC(F)(F)c1ccc(N2CCCCC2)c(NC(=S)c2ccncc2)c1 [Compound 2, N-[2-(1-piperidinyl)-5-(trifluoromethyl)phenyl]isonicotinthioamide] |  |  |  |  |  |  |  | Decreases in luciferase activity |  |
| COc1ccccc1C(=O)NC(=S)Nc1cc(C(F)(F)F)ccc1N1CCCCCCC1 [Compound 15, N-(2-methoxybenzoyl)-N′-[2-(azacyclooctan-1-yl)-5-(trifluoromethyl)phenyl]thiourea] | 45.8% | 37.6% | 107.86 % control | 107.33 % control |  |  |  |  |  |
| O=C(NC(=S)Nc1cc(C(F)(F)F)ccc1N1CCCCCCC1)c1ccncc1 [Compound 7, N-isonicotinoyl-N′-[2-(azacyclooctan-1-yl)-5-(trifluoromethyl)phenyl]thiourea] | 30.7% | 16.4% | 76.97 % control | 71.85 % control |  |  |  |  |  |
| O=C(NC(=S)Nc1cc(F)ccc1N1CCCCCCC1)c1cccnc1 [Compound 9] | 33.6% | 26% | 82.79 % control | 73.39 % control |  |  |  |  |  |
| FC(F)(F)c1ccc(N2CC[C@H]3CCCC[C@@H]3C2)c(NC(=S)c2ccncc2)c1 (relative stereo) [Compound 22, N-[2-(trans-3-azabicyclo[4.4.0]decan-3-yl)-5-(trifluoromethyl)phenyl]isonicotinthioamide] | 42.6% | 21.9% | 104.65 % control | 96.39 % control |  |  |  |  |  |
| COc1ccc(C(=O)NC(=S)Nc2cc(C(F)(F)F)ccc2N2CCCCCCC2)cc1 [Compound 12, N-(4-methoxybenzoyl)-N′-[2-(azacyclooctan-1-yl)-5-(trifluoromethyl)phenyl]thiourea] | 32.8% | 28.6% | 94.69 % control | 88.78 % control |  |  |  |  |  |
| Cc1ccc(C(=O)NC(=S)Nc2cc(C(F)(F)F)ccc2N2CCCCCCC2)cn1 [Compound 10, N-(6-methylnicotinoyl)-N′-[2-(azacyclo-octan-1-yl)-5-(trifluoro-methyl)phenyl]thiourea] | 41.2% | 26.9% | 96.19 % control | 89.38 % control |  |  |  |  |  |
